From patent publication US11725011B2, “Bicyclic urea kinase inhibitors and uses thereof” (The Broad Institute, Inc., priority 2016, dated 2023)

Columns and labels:
Assay in all cases: KINOMEscan
Type in all cases: binding
Conditions in all cases: 1 uM
VEGFR2 = VEGFR2 (Homo sapiens (Human), UniProt P35968)
LRRK2 (G2019S) = LRRK2 (G2019S) (Homo sapiens (Human), UniProt Q5S007, G2019S)
NEK1 = NEK1 (Homo sapiens (Human), UniProt Q96PY6)
KIT (L576P) = KIT (L576P) (Homo sapiens (Human), UniProt P10721, L576P)
MAK = MAK (Homo sapiens (Human), UniProt P20794)
[1] = target: EGFR (L747-T751del, Sins) (Homo sapiens (Human), UniProt P00533, DEL747-751/INS746S)
RAF1 = RAF1 (Homo sapiens (Human), UniProt P04049)
PIK3CA (H1047L) = PIK3CA (H1047L) (Homo sapiens (Human), UniProt P42336, H1047L)
DYRK1A = DYRK1A (Homo sapiens (Human), UniProt Q13627)
DAPK3 = DAPK3 (Homo sapiens (Human), UniProt O43293)
WEE2 = WEE2 (Homo sapiens (Human), UniProt P0C1S8)
CDK7 = CDK7 (Homo sapiens (Human), UniProt P50613)
CDK7, sequence (P50613 whole entry): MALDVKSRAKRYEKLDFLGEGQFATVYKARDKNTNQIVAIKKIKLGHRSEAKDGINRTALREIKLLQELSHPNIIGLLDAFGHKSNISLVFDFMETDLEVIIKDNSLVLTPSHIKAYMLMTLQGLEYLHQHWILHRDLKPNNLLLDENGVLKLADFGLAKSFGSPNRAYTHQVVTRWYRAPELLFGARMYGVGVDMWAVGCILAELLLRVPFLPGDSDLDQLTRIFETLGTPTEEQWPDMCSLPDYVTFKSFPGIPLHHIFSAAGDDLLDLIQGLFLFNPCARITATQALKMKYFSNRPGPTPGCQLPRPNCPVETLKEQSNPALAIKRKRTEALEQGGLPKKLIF

RAF1, sequence (P04049 whole entry): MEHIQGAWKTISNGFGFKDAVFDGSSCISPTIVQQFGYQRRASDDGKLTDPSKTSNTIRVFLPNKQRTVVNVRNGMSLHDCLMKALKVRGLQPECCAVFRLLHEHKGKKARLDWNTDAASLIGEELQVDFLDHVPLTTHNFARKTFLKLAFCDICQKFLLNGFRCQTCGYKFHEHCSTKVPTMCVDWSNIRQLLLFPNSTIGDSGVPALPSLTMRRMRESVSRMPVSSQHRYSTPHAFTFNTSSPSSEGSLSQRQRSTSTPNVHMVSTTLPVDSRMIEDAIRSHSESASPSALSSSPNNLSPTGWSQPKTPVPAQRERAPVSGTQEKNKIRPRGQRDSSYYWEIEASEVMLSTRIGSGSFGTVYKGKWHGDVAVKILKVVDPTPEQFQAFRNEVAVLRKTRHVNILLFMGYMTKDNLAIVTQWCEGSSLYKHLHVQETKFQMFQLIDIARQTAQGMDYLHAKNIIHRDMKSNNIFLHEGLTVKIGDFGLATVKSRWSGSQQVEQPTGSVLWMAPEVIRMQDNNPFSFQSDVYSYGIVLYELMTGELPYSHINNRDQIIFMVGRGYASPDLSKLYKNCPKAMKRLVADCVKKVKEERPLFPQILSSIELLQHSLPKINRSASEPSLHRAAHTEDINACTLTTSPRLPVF
LRRK2 (G2019S), sequence (Q5S007 whole entry G2019S): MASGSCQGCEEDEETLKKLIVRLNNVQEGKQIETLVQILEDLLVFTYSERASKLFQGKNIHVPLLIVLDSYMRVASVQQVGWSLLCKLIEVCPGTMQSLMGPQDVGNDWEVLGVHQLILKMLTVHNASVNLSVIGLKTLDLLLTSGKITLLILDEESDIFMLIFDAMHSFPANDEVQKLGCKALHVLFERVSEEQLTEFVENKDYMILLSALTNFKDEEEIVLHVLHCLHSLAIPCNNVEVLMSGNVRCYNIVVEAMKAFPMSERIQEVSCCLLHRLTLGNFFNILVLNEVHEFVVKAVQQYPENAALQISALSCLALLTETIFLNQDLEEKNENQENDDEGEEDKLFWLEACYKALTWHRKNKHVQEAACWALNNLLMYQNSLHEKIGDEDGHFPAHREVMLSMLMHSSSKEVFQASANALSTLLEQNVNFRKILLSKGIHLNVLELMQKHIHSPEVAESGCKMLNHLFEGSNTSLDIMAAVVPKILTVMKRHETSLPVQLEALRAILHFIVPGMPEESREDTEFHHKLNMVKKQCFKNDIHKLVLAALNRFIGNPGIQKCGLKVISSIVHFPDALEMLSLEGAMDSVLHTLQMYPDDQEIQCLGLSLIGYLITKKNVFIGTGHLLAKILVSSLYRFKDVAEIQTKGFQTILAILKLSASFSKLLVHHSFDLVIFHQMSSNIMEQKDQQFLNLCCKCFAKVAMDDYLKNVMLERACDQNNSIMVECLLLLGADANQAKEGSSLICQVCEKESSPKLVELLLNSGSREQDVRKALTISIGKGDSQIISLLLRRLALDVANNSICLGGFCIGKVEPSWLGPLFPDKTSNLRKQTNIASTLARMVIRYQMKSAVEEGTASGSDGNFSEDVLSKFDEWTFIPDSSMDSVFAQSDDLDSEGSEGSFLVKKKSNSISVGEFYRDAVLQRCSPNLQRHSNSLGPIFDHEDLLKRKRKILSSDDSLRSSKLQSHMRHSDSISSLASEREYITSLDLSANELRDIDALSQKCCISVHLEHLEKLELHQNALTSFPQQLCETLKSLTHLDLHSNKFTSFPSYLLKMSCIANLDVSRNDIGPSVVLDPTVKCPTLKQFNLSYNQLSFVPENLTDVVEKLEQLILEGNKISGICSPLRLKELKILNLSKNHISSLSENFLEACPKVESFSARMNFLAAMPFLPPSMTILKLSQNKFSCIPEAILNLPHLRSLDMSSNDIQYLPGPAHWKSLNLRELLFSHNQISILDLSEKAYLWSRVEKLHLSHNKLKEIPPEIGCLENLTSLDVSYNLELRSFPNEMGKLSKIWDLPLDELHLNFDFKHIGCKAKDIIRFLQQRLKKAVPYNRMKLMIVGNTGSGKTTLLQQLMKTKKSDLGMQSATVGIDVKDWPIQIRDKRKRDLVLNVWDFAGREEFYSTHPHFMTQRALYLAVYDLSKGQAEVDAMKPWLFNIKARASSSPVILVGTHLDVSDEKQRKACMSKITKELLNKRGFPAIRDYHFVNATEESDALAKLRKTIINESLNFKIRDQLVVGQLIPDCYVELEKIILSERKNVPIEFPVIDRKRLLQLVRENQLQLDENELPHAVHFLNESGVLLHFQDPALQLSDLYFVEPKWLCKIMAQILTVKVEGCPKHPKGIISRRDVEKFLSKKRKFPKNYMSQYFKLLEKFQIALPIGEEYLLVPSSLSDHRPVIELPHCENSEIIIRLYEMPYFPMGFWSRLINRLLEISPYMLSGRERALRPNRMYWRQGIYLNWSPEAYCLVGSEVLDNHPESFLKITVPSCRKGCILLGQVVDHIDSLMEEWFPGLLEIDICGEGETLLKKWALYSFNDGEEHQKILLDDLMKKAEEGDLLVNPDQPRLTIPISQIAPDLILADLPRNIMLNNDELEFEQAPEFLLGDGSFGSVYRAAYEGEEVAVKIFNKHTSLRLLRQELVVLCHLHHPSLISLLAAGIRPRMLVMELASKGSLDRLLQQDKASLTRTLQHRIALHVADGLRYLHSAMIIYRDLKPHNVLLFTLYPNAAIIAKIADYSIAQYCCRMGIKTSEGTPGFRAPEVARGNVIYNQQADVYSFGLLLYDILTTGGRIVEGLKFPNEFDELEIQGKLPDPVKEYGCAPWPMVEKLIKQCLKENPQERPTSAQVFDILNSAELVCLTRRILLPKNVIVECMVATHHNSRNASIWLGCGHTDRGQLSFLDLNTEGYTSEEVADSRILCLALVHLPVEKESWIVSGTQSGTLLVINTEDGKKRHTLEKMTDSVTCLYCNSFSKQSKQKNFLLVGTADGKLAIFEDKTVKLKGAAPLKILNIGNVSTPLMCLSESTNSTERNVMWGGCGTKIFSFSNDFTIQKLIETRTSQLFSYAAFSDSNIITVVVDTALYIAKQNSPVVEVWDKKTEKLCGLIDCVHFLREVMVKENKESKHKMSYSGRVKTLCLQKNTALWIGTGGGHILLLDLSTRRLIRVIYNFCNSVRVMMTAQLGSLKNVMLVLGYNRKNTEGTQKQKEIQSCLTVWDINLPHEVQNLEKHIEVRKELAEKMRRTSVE
EGFR (L747-T751del, Sins), sequence (P00533 other isoform, or with tags, fused parts or gaps del 1-668/ins S behind 746/del 747-751/del 1012-1210 limits assumed): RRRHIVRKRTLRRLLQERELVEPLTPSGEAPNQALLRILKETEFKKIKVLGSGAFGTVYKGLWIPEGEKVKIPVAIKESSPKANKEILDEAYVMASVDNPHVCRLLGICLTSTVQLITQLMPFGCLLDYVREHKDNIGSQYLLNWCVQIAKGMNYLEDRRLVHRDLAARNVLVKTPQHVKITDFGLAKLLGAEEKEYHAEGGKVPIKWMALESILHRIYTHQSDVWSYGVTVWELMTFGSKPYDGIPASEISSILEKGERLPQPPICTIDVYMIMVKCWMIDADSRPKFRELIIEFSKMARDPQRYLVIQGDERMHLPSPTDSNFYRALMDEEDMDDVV
MAK, sequence (P20794 whole entry): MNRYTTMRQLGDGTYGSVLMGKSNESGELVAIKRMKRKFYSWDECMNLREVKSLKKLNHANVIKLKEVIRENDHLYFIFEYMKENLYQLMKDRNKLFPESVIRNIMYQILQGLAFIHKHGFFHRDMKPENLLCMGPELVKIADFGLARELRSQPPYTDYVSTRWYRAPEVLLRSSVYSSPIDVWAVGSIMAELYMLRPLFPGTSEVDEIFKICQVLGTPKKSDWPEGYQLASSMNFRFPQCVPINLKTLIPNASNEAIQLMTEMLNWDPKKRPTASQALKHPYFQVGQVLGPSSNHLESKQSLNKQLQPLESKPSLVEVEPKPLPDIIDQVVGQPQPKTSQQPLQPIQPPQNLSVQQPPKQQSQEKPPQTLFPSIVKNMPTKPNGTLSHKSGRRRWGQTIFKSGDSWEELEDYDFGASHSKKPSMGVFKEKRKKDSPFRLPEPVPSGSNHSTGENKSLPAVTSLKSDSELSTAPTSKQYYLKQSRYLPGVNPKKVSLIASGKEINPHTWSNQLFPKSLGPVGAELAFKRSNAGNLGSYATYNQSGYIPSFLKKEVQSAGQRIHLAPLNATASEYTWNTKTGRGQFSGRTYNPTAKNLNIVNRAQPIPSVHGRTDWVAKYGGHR
WEE2, sequence (P0C1S8 whole entry): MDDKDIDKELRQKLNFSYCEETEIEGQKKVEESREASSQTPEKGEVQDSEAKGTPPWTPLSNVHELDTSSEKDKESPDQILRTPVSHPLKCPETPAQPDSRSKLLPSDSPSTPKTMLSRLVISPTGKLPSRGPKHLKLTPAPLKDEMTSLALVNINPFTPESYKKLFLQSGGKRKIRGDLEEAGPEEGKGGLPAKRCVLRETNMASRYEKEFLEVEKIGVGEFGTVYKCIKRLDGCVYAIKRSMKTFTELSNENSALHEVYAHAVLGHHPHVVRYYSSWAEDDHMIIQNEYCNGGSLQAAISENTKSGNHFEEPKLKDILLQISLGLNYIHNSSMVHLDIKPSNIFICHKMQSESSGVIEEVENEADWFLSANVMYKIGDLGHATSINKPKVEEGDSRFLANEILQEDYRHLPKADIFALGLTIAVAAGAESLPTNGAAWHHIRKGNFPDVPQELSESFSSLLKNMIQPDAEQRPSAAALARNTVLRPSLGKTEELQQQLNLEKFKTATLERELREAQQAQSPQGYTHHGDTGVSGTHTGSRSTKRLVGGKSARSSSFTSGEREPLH

## COc1ccc(N2C(=O)N(c3c(C)cccc3C)Cc3cnc(Nc4ccc(N5CCN(C)CC5)cc4)nc32)c(OC)c1 [HG-11-136-01]
VEGFR2
  KINOMEscan VEGFR2: 1.8
LRRK2 (G2019S)
  KINOMEscan LRRK2 (G2019S): 6.6
NEK1
  KINOMEscan NEK1: 88
KIT (L576P)
  KINOMEscan KIT (L576P): 0
MAK
  KINOMEscan MAK: 100
[1]
  KINOMEscan EGFR (L747-T751del, Sins): 0.3
RAF1
  KINOMEscan RAF1: 93
PIK3CA (H1047L)
  KINOMEscan PIK3CA (H1047L): 96
DYRK1A
  KINOMEscan DYRK1A: 30
DAPK3
  KINOMEscan DAPK3: 63
WEE2
  KINOMEscan WEE2: 82
CDK7
  KINOMEscan CDK7: 60
